Data published in ChEMBL document CHEMBL1201862, “PubChem BioAssay data set” (2004).
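Step 1: Grow cells in 96-well plates. Step 2: Expose to compound for 48 hours at 5 concentrations. Step 3: Interpolate endpoints linearly; if unreached, use highest concentration. GI50 marks 50% less growth.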 Activity calls are given as the source filed them. Cut-off read from the data, not from the text of the source: active = GI50 up to about 1.1 µM and inactive = higher.

Assays:
Experiment in all cases: NCI tumour cell line growth inhibition, 48 h
Hs-578T = tested on: Hs-578T
U-251 = tested on: U-251
SK-MEL-28 = tested on: SK-MEL-28
SK-OV-3 = tested on: SK-OV-3
EKVX = tested on: EKVX
MDA-N = tested on: MDA-N
OVCAR-3 = tested on: OVCAR-3
ACHN = tested on: ACHN
MCF7 = tested on: MCF7
MDA-MB-231 = tested on: MDA-MB-231
SN12C = tested on: SN12C
UO-31 = tested on: UO-31
TK-10 = tested on: TK-10
NCI-H23 = tested on: NCI-H23
SF-295 = tested on: SF-295
UACC-62 = tested on: UACC-62
HT-29 = tested on: HT-29
SF-268 = tested on: SF-268
NCI/ADR-RES = tested on: NCI/ADR-RES
SNB-75 = tested on: SNB-75

| SMILES | GI50 (Hs-578T) | GI50 (U-251) | GI50 (SK-MEL-28) | GI50 (SK-OV-3) | GI50 (EKVX) | GI50 (MDA-N) | GI50 (OVCAR-3) | GI50 (ACHN) | GI50 (MCF7) | GI50 (MDA-MB-231) | GI50 (SN12C) | GI50 (UO-31) | GI50 (TK-10) | GI50 (NCI-H23) | GI50 (SF-295) | GI50 (UACC-62) | GI50 (HT-29) | GI50 (SF-268) | GI50 (NCI/ADR-RES) | GI50 (SNB-75) |
| --- | --- | --- | --- | --- | --- | --- | --- | --- | --- | --- | --- | --- | --- | --- | --- | --- | --- | --- | --- | --- |
| Cc1ccc2c(O)cc(-c3cc4ccccc4s3)nc2n1 | > 41.6 µM (inactive) | > 100 µM (inactive) | > 100 µM (inactive) | 45.1 µM (inactive) | 27.4 µM (inactive) | 98.9 µM (inactive) | > 100 µM (inactive) | 47.6 µM (inactive) | 17.7 µM (inactive) | > 100 µM (inactive) | > 100 µM (inactive) | 0.0353 µM (active) | > 95.9 µM (inactive) | > 56.2 µM (inactive) | 40.1 µM (inactive) | > 68.7 µM (inactive) | > 84.7 µM (inactive) | 43.2 µM (inactive) | > 57.7 µM (inactive) | 17.5 µM (inactive) |
| C[C@H](OC(=O)/C=C/c1ccc(O)c(O)c1)[C@H](C)OC(=O)/C=C/c1ccc(O)c(O)c1 | 6.65 µM (inactive) | 10.8 µM (inactive) | 11.5 µM (inactive) | 16.3 µM (inactive) | 14.7 µM (inactive) | 4.45 µM (inactive) | 4.24 µM (inactive) | 6.11 µM (inactive) | 6.28 µM (inactive) | 10.9 µM (inactive) | 11.5 µM (inactive) | 4.8 µM (inactive) | 10 µM (inactive) | 4.29 µM (inactive) | 6.27 µM (inactive) | 2.93 µM (inactive) | 12.2 µM (inactive) | 7.43 µM (inactive) | 12.2 µM (inactive) | 15.7 µM (inactive) |
| O=S(=O)(N1CCCCN(S(=O)(=O)C(F)(F)F)CCCN(S(=O)(=O)C(F)(F)F)CCCCN(S(=O)(=O)C(F)(F)F)CCCN(S(=O)(=O)C(F)(F)F)CCCCN(S(=O)(=O)C(F)(F)F)CCCN(S(=O)(=O)C(F)(F)F)CCCCN(S(=O)(=O)C(F)(F)F)CCC1)C(F)(F)F | > 31.6 µM (inactive) | > 100 µM (inactive) | > 31.6 µM (inactive) | > 31.6 µM (inactive) | > 31.6 µM (inactive) | > 31.6 µM (inactive) | > 31.6 µM (inactive) | > 31.6 µM (inactive) | > 10 µM (inactive) | > 31.6 µM (inactive) | > 31.6 µM (inactive) | > 31.6 µM (inactive) | > 31.6 µM (inactive) | > 31.6 µM (inactive) | > 31.6 µM (inactive) | > 31.6 µM (inactive) | > 31.6 µM (inactive) | > 31.6 µM (inactive) | > 31.6 µM (inactive) | > 31.6 µM (inactive) |
| O=C(O)CNC(=O)C1NC(C(F)(F)F)(C(F)(F)F)OC1(C(F)(F)F)C(F)(F)F (stereo not given) | > 100 µM (inactive) | > 100 µM (inactive) | > 100 µM (inactive) | > 100 µM (inactive) | > 100 µM (inactive) | > 100 µM (inactive) | > 100 µM (inactive) | > 100 µM (inactive) | > 100 µM (inactive) | > 100 µM (inactive) | > 100 µM (inactive) | > 100 µM (inactive) | > 100 µM (inactive) | > 100 µM (inactive) | 92.3 µM (inactive) | > 100 µM (inactive) | > 100 µM (inactive) | > 100 µM (inactive) | > 100 µM (inactive) | > 100 µM (inactive) |
| O=C(N/N=C/c1ccccc1)c1cccc2nc3ccccc3nc12 | 18.7 µM (inactive) | > 100 µM (inactive) | > 100 µM (inactive) | > 88.3 µM (inactive) | > 39.3 µM (inactive) | 54.2 µM (inactive) | > 100 µM (inactive) | > 100 µM (inactive) | > 45 µM (inactive) | > 100 µM (inactive) | > 87.9 µM (inactive) | > 100 µM (inactive) | > 100 µM (inactive) | 6.07 µM (inactive) | 17.1 µM (inactive) | > 100 µM (inactive) | 46.3 µM (inactive) | > 80.2 µM (inactive) | > 100 µM (inactive) | > 100 µM (inactive) |
| N/N=C(\C(=O)Nc1ccc([N+](=O)[O-])cc1)C(C1=Nc2cc([N+](=O)[O-])ccc2NC1)[N+](=O)[O-] (stereo not given) | > 100 µM (inactive) | > 100 µM (inactive) | > 100 µM (inactive) | > 100 µM (inactive) | > 100 µM (inactive) | > 100 µM (inactive) | > 100 µM (inactive) | 43.1 µM (inactive) | 44.3 µM (inactive) | > 100 µM (inactive) | > 100 µM (inactive) | 22.1 µM (inactive) | > 100 µM (inactive) | > 100 µM (inactive) | > 100 µM (inactive) | > 100 µM (inactive) | 72.4 µM (inactive) | > 100 µM (inactive) | > 100 µM (inactive) | > 100 µM (inactive) |
| CC1OC(OC2C(Oc3cc(O)c4c(c3)O[C@H](c3ccc(O)cc3)CC4=O)OC(CO)C(O)C2O)C(O)C(O)C1O (stereo not given in full) | > 100 µM (inactive) | > 100 µM (inactive) | > 100 µM (inactive) | > 100 µM (inactive) | > 100 µM (inactive) | > 100 µM (inactive) | > 100 µM (inactive) | > 100 µM (inactive) | > 100 µM (inactive) | > 100 µM (inactive) | > 100 µM (inactive) | > 100 µM (inactive) | > 100 µM (inactive) | > 100 µM (inactive) | > 100 µM (inactive) | > 100 µM (inactive) | > 100 µM (inactive) | > 100 µM (inactive) | > 100 µM (inactive) | > 100 µM (inactive) |
